Results published in patent publication US9365548B2, “Benzoimidazol-2-yl pyrimidines and pyrazines as modulators of the histamine H4 receptor” (Janssen Pharmaceutica NV, priority 2006, dated 2016).

What follows are compounds tested against T1, Recombinant Human Histamine H4 Receptor (Homo sapiens, UniProt Q9H3N8) (assay: Binding Assay on Recombinant Human Histamine H4 Receptor). Details: competition binding with 3H-histamine, membranes of SK-N-MC or COS7 cells expressing human histamine H4 receptor; Ki by Cheng-Prusoff (KD 5 nM, ligand 5 nM); average of results obtained.
T1 construct: expressed in transfected cells; host or cells: SK-N-MC cells or COS7 cells, transiently transfected; cell membranes used
Description: Additional examples of embodiments of this invention are provided by hemitartrate salts of compounds of Formula (I) and by hydrates, such as monohydrates and dihydrates, of compounds of Formula (I). […]

T1 sequence (Q9H3N8 whole entry): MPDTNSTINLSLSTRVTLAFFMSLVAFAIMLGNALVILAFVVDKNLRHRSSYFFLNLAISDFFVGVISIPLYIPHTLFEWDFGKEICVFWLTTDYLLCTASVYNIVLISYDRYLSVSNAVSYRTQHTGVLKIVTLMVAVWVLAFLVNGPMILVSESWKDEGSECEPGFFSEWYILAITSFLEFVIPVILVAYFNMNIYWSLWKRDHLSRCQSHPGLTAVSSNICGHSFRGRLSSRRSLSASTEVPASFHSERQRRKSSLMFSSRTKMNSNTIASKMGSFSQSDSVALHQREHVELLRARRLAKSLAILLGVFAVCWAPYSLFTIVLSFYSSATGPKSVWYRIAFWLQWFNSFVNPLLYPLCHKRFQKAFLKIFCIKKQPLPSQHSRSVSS

Row | Compound | Ki
1 | Cc1ccc2[nH]c(-c3cnc(NCCCC4CCN(C)CC4)nc3C3CC3)nc2c1C [Example 45, [4-Cyclopropyl-5-(4,5-dimethyl-1H-benzoimidazol-2-yl)-pyrimidin-2-yl]-[3-(1-methyl-piperidin-4-yl)-propyl]-amine] | 390 nM
2 | Cc1cc(F)cc2[nH]c(-c3cnc(NCCCC4CCN(C)CC4)nc3C3CC3)nc12 [Example 46, [4-Cyclopropyl-5-(6-fluoro-4-methyl-1H-benzoimidazol-2-yl)-pyrimidin-2-yl]-[3-(1-methyl-piperidin-4-yl)-propyl]-amine] | 230 nM
3 | Cc1cc(C)c2nc(-c3cnc(NCCCC4CCN(C)CC4)nc3C3CC3)[nH]c2c1 [Example 47, [4-Cyclopropyl-5-(4,6-dimethyl-1H-benzoimidazol-2-yl)-pyrimidin-2-yl]-[3-(1-methyl-piperidin-4-yl)-propyl]-amine] | 99 nM
4 | Cc1c(F)ccc2[nH]c(-c3cnc(NCCCC4CCN(C)CC4)nc3C3CC3)nc12 [Example 48, [4-Cyclopropyl-5-(5-fluoro-4-methyl-1H-benzoimidazol-2-yl)-pyrimidin-2-yl]-[3-(1-methyl-piperidin-4-yl)-propyl]-amine] | 140 nM
5 | [5-(4,5-Dimethyl-1H-benzoimidazol-2-yl)-4-ethyl-pyrimidin-2-yl]-methyl-[3-(1-methyl-piperidin-4-yl)-propyl]-amine [Example 8] | 29 nM
